Earlier results in patent US6969706B1, “Preserved pharmaceutical compositions comprising cyclodextrins” (Allergan, Inc., priority 2004, dated 2005).

System: a number of pathogens
Conditions: HPβCD solutions; reported by Loftsson et al. 1992

Molecule	preservative activity in the presence of 2-hydroxypropyl-β-cyclodextrin
CCCOC(=O)c1ccc(O)cc1 [propylparaben]	significantly reduced preservative activity
N=C(NCCCCCCNC(=N)NC(=N)Nc1ccc(Cl)cc1)NC(=N)Nc1ccc(Cl)cc1.O=C(O)[C@H](O)[C@@H](O)[C@H](O)[C@H](O)CO.O=C(O)[C@H](O)[C@@H](O)[C@H](O)[C@H](O)CO [chlorhexidine gluconate]	did possess preservative activity
COC(=O)c1ccc(O)cc1 [methylparaben]	significantly reduced preservative activity
benzalkonium chloride	did possess preservative activity
